Bounds are passed on as bounds.

This is an account of results in US20230357179A1, “RAF KINASE INHIBITORS AND METHODS OF USE THEREOF” (Deciphera Pharmaceuticals, LLC, priority 2021, published 2023).

One assay deals with T1, A-Raf kinase (Homo sapiens, UniProt P10398, Y301D/Y302D).
T1 construct: purchased Sigma
The experiment in a line: Biochemical assay for A-Raf.1 (coupled pyruvate kinase/lactate dehydrogenase). Conditions: read-out: ARAF.1 IC50. How it is done: Biochemical assay for A-Raf.1
(§1) Activity of A-Raf kinase (SEQ. ID NO. 1) was determined spectroscopically using a coupled pyruvate kinase/lactate dehydrogenase assay that continuously monitors the ATP hydrolysis-dependent oxidation of NADH (e.g., Schindler et al., Science, 2000, 289, 1938-1942). Assays were conducted in 384-well plates (100 μL final volume) using 5.55 nM A-Raf (Sigma), 1.5 units pyruvate kinase, 2.1 units lactate dehydrogenase, 1 mM phosphoenol pyruvate, 0.28 mM NADH, 30.1 nM MEK (SignalChem), and 1 mM ATP in assay buffer (100 mM Tris, pH 7.5, 15 mM MgCl2, 0.5 mM DTT, 0.1% octyl-glucoside, 0.002% (w/v) BSA, and 0.002% Triton X-100). Inhibition of A-Raf was measured by adding serial diluted test compound (final assay concentration of 1% DMSO). A decrease in absorption at 340 nm was monitored continuously for 6 h at 30° C. on a multi-mode microplate reader (BioTek). The reaction rate was calculated using the 4 to 5 h time frame. The reaction rate at each concentration of compound was converted to percent inhibition using controls (i.e., reaction with no test compound and reaction with a known inhibitor) and IC50 values were calculated by fitting a four-parameter sigmoidal curve to the data using Prism (GraphPad software).

The target of another assay is T2, B-Raf kinase (Homo sapiens, UniProt P15056).
T2 construct: GST (N); purchased Sigma
The experiment in a line: Biochemical assay for B-Raf.1 (coupled pyruvate kinase/lactate dehydrogenase). Particulars: read-out: BRAF.1 IC50. How it is done:
Biochemical Assay for B-Raf.1
as §1, with “B-Raf” for “A-Raf”, “NO: 2)” for “NO. 1)”, “0.13” for “5.55”

In the next assay the target is T3, C-Raf kinase (Homo sapiens, UniProt P04049, Y340D/Y341D).
T3 construct: Y340D,; GST (N); purchased Sigma
The experiment in a line: Biochemical assay for C-Raf.1 (coupled pyruvate kinase/lactate dehydrogenase). Particulars: read-out: CRAF.1 IC50. How it is done:
Biochemical Assay for C-Raf.1
as §1, with “C-Raf” for “A-Raf”, “NO: 3)” for “NO. 1)”, “0.43” for “5.55”

In a further assay the target is T4, B-Raf (V600E) kinase (Homo sapiens, UniProt P15056, V600E).
T4 construct: B-Raf (V600E) residues 416-766 with a; GST (N); purchased SignalChem
The experiment in a line: Biochemical assay for B-Raf (V600E).1 (coupled pyruvate kinase/lactate dehydrogenase). Particulars: read-out: BRAF V600E.1 IC50. How it is done:
Biochemical Assay for B-Raf (V600E).1
Activity of B-Raf (V600E) (SEQ. ID NO: 4) kinase was determined spectroscopically using a coupled pyruvate kinase/lactate dehydrogenase assay that continuously monitors the ATP hydrolysis-dependent oxidation of NADH (e.g., Schindler et al., Science, 2000, 289, 1938-1942). Assays were conducted in 384-well plates (100 μL final volume) using 0.03 nM B-Raf (SignalChem), 1.5 units pyruvate kinase, 2.1 units lactate dehydrogenase, 1 mM phosphoenol pyruvate, 0.28 mM NADH, 30.1 nM MEK (SignalChem), and 1 mM ATP in assay buffer (100 mM Tris, pH 7.5, 15 mM MgCl2, 0.5 mM DTT, 0.1% octyl-glucoside, 0.002% (w/v) BSA, and 0.002% Triton X-100). Inhibition of B-Raf (V600E) was measured by adding serial diluted test compound (final assay concentration of 1% DMSO). A decrease in absorption at 340 nm was monitored continuously for 6 h at 30° C. on a multi-mode microplate reader (BioTek). The reaction rate was calculated using the 3 to 4 h time frame. The reaction rate at each concentration of compound was converted to percent inhibition using controls (i.e., reaction with no test compound and reaction with a known inhibitor) and IC50 values were calculated by fitting a four-parameter sigmoidal curve to the data using Prism (GraphPad software).

T1 sequence (P10398 with tags, fused parts or gaps Y301D/Y302D): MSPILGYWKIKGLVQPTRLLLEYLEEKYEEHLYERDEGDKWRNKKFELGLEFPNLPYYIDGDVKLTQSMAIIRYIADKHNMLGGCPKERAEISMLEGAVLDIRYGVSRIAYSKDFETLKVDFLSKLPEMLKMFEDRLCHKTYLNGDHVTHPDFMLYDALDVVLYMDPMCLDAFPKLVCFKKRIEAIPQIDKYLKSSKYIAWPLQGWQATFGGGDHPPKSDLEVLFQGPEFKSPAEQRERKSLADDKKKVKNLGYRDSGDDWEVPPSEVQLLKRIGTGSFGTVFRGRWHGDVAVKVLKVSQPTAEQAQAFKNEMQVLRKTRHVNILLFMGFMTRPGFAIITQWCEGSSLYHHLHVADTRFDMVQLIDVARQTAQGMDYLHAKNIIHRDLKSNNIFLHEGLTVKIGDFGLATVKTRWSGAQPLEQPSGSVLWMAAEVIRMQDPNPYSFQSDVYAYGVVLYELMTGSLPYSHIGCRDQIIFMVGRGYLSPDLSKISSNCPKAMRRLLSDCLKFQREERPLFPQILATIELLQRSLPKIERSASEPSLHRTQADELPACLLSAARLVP
T4 sequence (P15056 416-766 V600E): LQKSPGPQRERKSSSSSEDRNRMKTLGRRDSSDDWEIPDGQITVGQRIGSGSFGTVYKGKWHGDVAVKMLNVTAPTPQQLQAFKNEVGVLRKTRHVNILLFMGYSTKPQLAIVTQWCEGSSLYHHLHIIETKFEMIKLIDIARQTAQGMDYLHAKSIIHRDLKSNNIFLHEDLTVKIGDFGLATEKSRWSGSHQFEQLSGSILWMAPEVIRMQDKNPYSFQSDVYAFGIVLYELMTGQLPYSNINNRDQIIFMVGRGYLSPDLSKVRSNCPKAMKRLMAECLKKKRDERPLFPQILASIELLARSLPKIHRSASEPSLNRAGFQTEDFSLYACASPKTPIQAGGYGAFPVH
T3 sequence (P04049 307-648 Y340D/Y341D): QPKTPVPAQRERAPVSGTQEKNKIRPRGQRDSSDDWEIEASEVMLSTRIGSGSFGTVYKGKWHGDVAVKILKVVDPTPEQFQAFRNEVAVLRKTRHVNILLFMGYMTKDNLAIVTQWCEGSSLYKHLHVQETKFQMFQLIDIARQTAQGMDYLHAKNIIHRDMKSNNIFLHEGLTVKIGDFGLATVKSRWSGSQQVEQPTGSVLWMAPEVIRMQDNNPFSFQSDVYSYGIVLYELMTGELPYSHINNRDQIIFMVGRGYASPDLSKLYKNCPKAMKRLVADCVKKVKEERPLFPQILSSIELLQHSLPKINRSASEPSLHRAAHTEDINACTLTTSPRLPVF
T2 sequence (P15056 416-766): as the sequence (P15056 416-766 V600E) above, with E185V counted along it

As usually defined, the IC50 is the concentration needed to halve the response being measured. For `Cc1cc(F)c(NC(=O)NCCC2(C(F)(F)F)CC2)cc1-c1cc(C2CCOCC2)nc(N2CCN(C)CC2)c1` [Example 12], the IC50 on A-Raf kinase was more than 1 µM; on B-Raf kinase, 0.5 to 1 µM; at C-Raf kinase, 0.1 to 0.5 µM; at B-Raf (V600E) kinase it was not above 0.1 µM.

On to `COC(=O)Nc1cc(-c2cnnc(-c3cc(NC(=O)N4CC[C@@H](OC)C4)cnc3C)c2)ccn1` [Example 203], for which the IC50 on A-Raf kinase, at B-Raf kinase, at C-Raf kinase and on B-Raf (V600E) kinase was more than 1 µM each time.

As to `Cc1ncc(NC(=O)NCCC(C)(C)C)cc1-c1cc(N2CCOCC2)c(=O)n(C)c1` [Example 8], the IC50 was more than 1 µM on A-Raf kinase, more than 1 µM at B-Raf kinase, 0.5 to 1 µM at C-Raf kinase and not above 0.1 µM at B-Raf (V600E) kinase.

As to `Cc1ccc(NC(=O)NC23CC4CC(CC(C4)C2)C3)cc1-c1cc(OCCO)nc(N2CCOCC2)c1` [Example 14], the IC50 is more than 1 µM at A-Raf kinase, more than 1 µM on B-Raf kinase, 0.1 to 0.5 µM at C-Raf kinase and not above 0.1 µM on B-Raf (V600E) kinase.

`CNC(=O)c1cc(-c2cnnc(-c3cc(NC(=O)N4CC[C@H](OC)C4)cnc3C)c2)ccn1` [Example 189]: the 50% inhibitory concentration (IC50) at A-Raf kinase, at B-Raf kinase, at C-Raf kinase and on B-Raf (V600E) kinase was more than 1 µM in each case.

Take `Cc1ncc(NC(=O)N2CCOCC2)cc1-c1cccc(-c2cc(NC(=O)C3CC3)ncn2)c1` [Example 74]: the IC50 at A-Raf kinase was more than 1 µM; on B-Raf kinase it was more than 1 µM; at C-Raf kinase, more than 1 µM; at B-Raf (V600E) kinase, 0.1 to 0.5 µM.

In the case of `CC(=O)Nc1cc(-c2cc(-c3cc(NC(=O)NCCCC(F)(F)F)c(F)cc3C)cc(C3CC3)n2)ccn1` [Example 58], the IC50 on A-Raf kinase is 0.5 to 1 µM; on B-Raf kinase, not above 0.1 µM; on C-Raf kinase it was not above 0.1 µM; at B-Raf (V600E) kinase it was not above 0.1 µM.

For the compound `COC(=O)Nc1cc(-c2cnnc(-c3cc(NC(=O)N4CCC(C)(C)C4)cnc3C)c2)ccn1` [Example 191], the concentration for half-maximal inhibition (IC50) at A-Raf kinase, at B-Raf kinase, on C-Raf kinase and on B-Raf (V600E) kinase was more than 1 µM throughout.

With `CNC(=O)c1cc(-c2cnnc(-c3cc(NC(=O)N4CCC(CC(F)(F)F)C4)cnc3C)c2)ccn1` (centres unmarked) [Example 192], the IC50 on A-Raf kinase is more than 1 µM; on B-Raf kinase, more than 1 µM; at C-Raf kinase it was 0.5 to 1 µM; on B-Raf (V600E) kinase, more than 1 µM.

In the case of `CNC(=O)c1cc(-c2cnnc(-c3cc(NC(=O)N4CC[C@@H](OC)C4)cnc3C)c2)ccn1` [Example 204], the 50% inhibitory concentration (IC50) at A-Raf kinase, on B-Raf kinase, at C-Raf kinase and on B-Raf (V600E) kinase was more than 1 µM in each case.

Take `COC1(CCNC(=O)Nc2cc(-c3cc(-c4cnn(C)c4)nc(N4CCOCC4)c3)c(C)cc2F)CC1` [Example 35]: the half-maximal inhibitory concentration (IC50) on A-Raf kinase was more than 1 µM; at B-Raf kinase, 0.1 to 0.5 µM; at C-Raf kinase, 0.1 to 0.5 µM; on B-Raf (V600E) kinase it was not above 0.1 µM.

For the compound `COC(C)(C)CCNC(=O)Nc1ccc(C)c(-c2cc(-c3cnn(C4CCNCC4)c3)nc(N3CCOCC3)c2)c1` [Example 46], the IC50 is more than 1 µM at A-Raf kinase, 0.1 to 0.5 µM at B-Raf kinase, 0.1 to 0.5 µM on C-Raf kinase and not above 0.1 µM at B-Raf (V600E) kinase.

In the case of `Cc1ncc(NC(=O)NCCC(C)(C)C)cc1-c1cc(N2CCOCC2)c(=O)n(C)n1` [Example 17], the IC50 is more than 1 µM at A-Raf kinase, more than 1 µM on B-Raf kinase, more than 1 µM at C-Raf kinase and not above 0.1 µM at B-Raf (V600E) kinase.

In the case of `Cc1cc(F)c(NC(=O)N[C@H]2C[C@H](N(C)C)C2)cc1-c1cc(OCCO)nc(-c2ccnc3[nH]ncc23)c1` [Example 86], the IC50 was more than 1 µM at A-Raf kinase, more than 1 µM on B-Raf kinase, more than 1 µM on C-Raf kinase and 0.1 to 0.5 µM at B-Raf (V600E) kinase.

With `COC(=O)Nc1cc(-c2cnnc(-c3cccc(NC(=O)N4CC[C@H](OC)C4)c3)c2)ccn1` [Example 190], the IC50 on A-Raf kinase, at B-Raf kinase, on C-Raf kinase and at B-Raf (V600E) kinase was more than 1 µM in each case.

On to `Cc1ncc(NC(=O)NCCC(C)(C)C)cc1-c1ccnc(N2CCOCC2)c1` [Example 16], for which the IC50 was more than 1 µM at A-Raf kinase, 0.5 to 1 µM on B-Raf kinase, 0.1 to 0.5 µM on C-Raf kinase and not above 0.1 µM at B-Raf (V600E) kinase.

With `COC(C)(C)CCNC(=O)Nc1cc(-c2cccc(-c3ccnc(N)c3)c2)c(C)cc1F` [Example 70], the IC50 on A-Raf kinase was more than 1 µM; at B-Raf kinase it was 0.1 to 0.5 µM; at C-Raf kinase it was 0.1 to 0.5 µM; on B-Raf (V600E) kinase, not above 0.1 µM.

With `COC(=O)Nc1cc(-c2cc(-c3cc(NC(=O)N4CCC(C)(C)C4)cnc3C)ccn2)ccn1` [Example 198], the IC50 on A-Raf kinase was more than 1 µM; on B-Raf kinase, 0.5 to 1 µM; at C-Raf kinase, 0.1 to 0.5 µM; on B-Raf (V600E) kinase it was more than 1 µM.

For the compound `COC(=O)Nc1cc(-c2cnnc(-c3cccc(NC(=O)N4CC[C@@H](OC)C4)c3)c2)ccn1` [Example 199], the IC50 at A-Raf kinase, on B-Raf kinase, at C-Raf kinase and at B-Raf (V600E) kinase was more than 1 µM in each case.

For the compound `COC(=O)Nc1cc(-c2cc(-c3cc(NC(=O)N4CCC(C(C)(C)O)C4)cnc3C)ccn2)ccn1` (centres unmarked) [Example 212], the IC50 was more than 1 µM at A-Raf kinase, more than 1 µM on B-Raf kinase, 0.5 to 1 µM on C-Raf kinase and more than 1 µM on B-Raf (V600E) kinase.
